This note sets out measurements from patent US5438062A, “Benzo(5,6)cycloheptapyridines, compositions and methods of use” (Schering Corporation, priority 1987, dated 1995).

Data set [1] relates to PAF-induced platelet aggregation (platelet-rich plasma). In words: PAF antagonism, in vitro platelet aggregation assay. To be noted: human PRP; for IC50: dose giving 50 % PAF antagonism, PAF 1-5×10^-8 M; for inhibition at 10 µM: dose 10 micromoles; for inhibition at 5 µM: dose 5 micromoles. The format is cell-based. The procedure:
Blood was centrifuged at 110×g for 15 min. and the supernatant PRP carefully transferred into a polypropylene tube. Platelet-poor-plasma (PPP) was prepared by centrifuging PRP at 12,000×g for 2 min. in a Beckman Microfuge B. PRP was used within 3 hours of drawing the blood.
Platelet Aggregation Assay: When an aggregating agent such as PAF is added to PRP, platelets aggregate. An aggregometer quantifies this aggregation by measuring light (infra-red) transmission through PRP and comparing to PPP. The aggregation assays were performed using a dual-channel aggregometer (Model 440, Chrono-Log Corp., Hayertown, Pa.). PRP (0.45 ml) in aggregometer curettes was continually stirred (37° C.). Solutions of test compounds or vehicle were added to the PRP, and after incubation for 2 min., 10-15 μl aliquots of PAF solution were added so as to achieve a final concentration of 1-5×10^-8 M. Incubations were continued until the increase in light transmission reached a maximum (usually about 2 min). Values for inhibition were calculated by comparing maximal aggregation obtained in the absence and the presence of the compound. For each experiment, a standard PAF antagonist, such as alprazolam, was used as a positive internal control. […] The test results are shown below in Tables Ia, Ib and Ic.

Data set [2] in a line: CNS activity: antagonism of acetic acid writhing. The settings on record: mouse, in vivo; mice, oral, 15 minutes before acetic acid i.p. The procedure:
E. Antagonism of Acetic Acid Writhing. The acetic acid writhing test is a second test useful for determining CNS activity, and is essentially that described by HENDERSHOT and FORSAITH, J. Pharmac. […] Mice were injected with 0.6% aqueous acetic acid at 10 mg/kg i.p. 15 minutes after oral administration of the test drug. The number of writhes for each animal was counted during a 10 minute period starting 3 minutes after acetic acid treatment. A writhe was defined as a sequence of arching of the back, pelvic rotation and hind limb extension.

The test system of data set [3] is histamine-induced lethality. Kind of data set: Antihistamine activity: prevention of histamine-induced lethality in guinea pigs. It is filed as in vivo. To be noted: Cavia porcellus, guinea pig; for responders at 1 mg/kg / responders at 5 mg/kg: 0.5 h, 1 hour before histamine 1.1 mg/kg i.v., read-out: Antihistaminic Activity, % Survival; for responders at 1 mg/kg: oral dose 1 mg/kg PO; for responders at 5 mg/kg: oral dose 5 mg/kg PO. The method, then: C. ANTIHISTAMINE ACTIVITY ASSAY
Prevention of Histamine-Induced Lethality in Guinea Pigs. Some of compounds shown below in Table I also were evaluated for antihistamine activity by their ability to protect female albino guinea pigs (250-350 g) against death induced by the intravenous injection of histamine dihydrochloride at 1.1 mg/kg, which is approximately twice the LD99. Doses of the antagonists were administered orally to separate groups of fasted animals 1 hour prior to the challenge with histamine and protection from death recorded for 30 minutes after histamine. ED50 values were determined for each drug by probit analysis.

Data set [4] in a line: CNS activity: antagonism of electro-convulsive shock (ECS). To be noted: mouse, in vivo; mice, oral, one hour before ECS; read-out: ECS test ED50. The procedure:
F. Antagonism of Electro-Convulsive Shock (ECS). The ECS test is a third test useful for determining CNS activity. […] One hour after oral administration of the test drug or vehicle, mice were administered a 13 mA, 60 cycle a.c. electroconvulsant shock (ECS) for 0.2 seconds via corneal electrodes.

Each structure is given as a SMILES string.

The term inhibition denotes the drop in the measured response relative to a control, in per cent. Higher therefore signals strong suppression. For `CC(=O)N1CCC(=C2c3ccc(Cl)cc3CCc3cc(C)cnc32)CC1`, in data set [1] (dose .12 micromoles), the inhibition at 0.12 µM was determined as 44%.
Molecule `CC(=O)N1CCC(=C2c3cc(F)c(F)cc3CCc3ccc[n+]([O-])c32)CC1` yielded an inhibition at 2.5 µM in data set [1] (dose 2.5 micromoles) of 53%.
The IC50 is the midpoint of a concentration-inhibition curve. Low values mean greater potency in that assay, high ones weaker potency in that assay. On to `CC(=O)N1CCC(=C2c3ccccc3CCc3ccc[n+]([O-])c32)CC1`, for which the 50% inhibitory concentration (IC50) in data set [1] was determined as 1.5 µM. In other words, the single-digit micromolar range.
The same measure, in the same setting: to `CC(=O)N1CCC(=C2c3ccc(Cl)cc3CC(C)c3cccnc32)CC1` (stereo not drawn) [5-methyl-8-chloro-11-[1-acetyl-4-piperidylidene]-5H-benzo[5,6]cyclohepta[1,2-b]pyridine] belongs 1 µM.
As a reminder, the ED50 is the midpoint of the dose-response relation. For the molecule `CCSC(=O)N1CCC(=C2c3ccc(Cl)cc3CCc3cccnc32)CC1` [R = SCH2 CH3, R^3 = Cl, R^4 = H, Z = O, 8-chloro-11-[1-thioethoxycarbonyl-4-piperidylidene]-6,11-dihydro-5H-benzo[5,6]cyclohepta[1,2-b]pyridine], the ED50 in data set [2] was over 320 mg/kg. Further, in data set [3], the responders at 1 mg/kg was 100% and the responders at 5 mg/kg is 80%. In addition, in data set [4], the ED50 is over 320 mg/kg. Moreover, 10 µM produced 0% inhibition in data set [1].
In turn, `CC(=O)N1CCC(C2c3ccccc3CCc3cccnc32)CC1` (stereo not drawn) [R^3 = H, R^4 = H, R = CH3, Z = O, X = CH, 11-(1-acetyl-4-piperidyl)-6,11-dihydro-5H-benzo[5,6]cyclohepta[1,2-b]pyridine] returned a 50% inhibitory concentration (IC50) in data set [1] of 5 µM. That is a single-digit micromolar value.
For the molecule `CCCC(=O)N1CCC(=C2c3ccc(Cl)cc3CCc3cccnc32)CC1` [8-chloro-11-(1-n-butyryl-4-piperidylidene)-6,11-dihydro-5H-benzo[5,6]cyclohepta[1,2-b]pyridine], the median effective dose (ED50) in data set [2] was over 320 mg/kg. Besides, in data set [3], the responders at 1 mg/kg is 40% and the responders at 5 mg/kg worked out at 100%. Moreover, in data set [4], the ED50 is over 320 mg/kg.
For `CC(=O)N1CCC(=C2c3ccc(Br)cc3CCc3cccnc32)CC1` [R^3 = Br, R^4 = H, R = CH3, Z = O, 8-bromo-11-[1-acetyl-4-piperidylidene]-6,11-dihydro-5H-benzo[5,6]cyclohepta[1,2-b]pyridine], half-maximal inhibition in data set [1] (IC50) was put at 1.2 µM.
Consider `O=CN1CCN(C2c3ccc(Cl)cc3CCc3cccnc32)CC1` (stereo not drawn) [R^3 = Cl, X = N, R = H, Z = O, R^4 = H, 8-chloro-11-(1-formyl-4-piperazinyl)-6,11-dihydro-5H-benzo[5,6]cyclohepta[1,2-b]pyridine], for which the IC50 in data set [1] came out at 5 µM.
Turning to `CC(=O)N1CCN(C2c3ccc(Cl)cc3CCc3cccnc32)CC1` (stereo not drawn) [R^3 = Cl, X = N, R = CH3, Z = O, R^4 = H, 8-chloro-11-(1-acetyl-4-piperazinyl)-6,11-dihydro-5H-benzo[5,6]cyclohepta[1,2-b]pyridine], the inhibition at 0.5 µM in data set [1] (dose .5 micromoles) stood at 43%.
As for `C=CC(=O)N1CCC(=C2c3ccc(Cl)cc3CCc3cccnc32)CC1` [R^3 = Cl, R^4 = H, R = CHCH2, Z = O, 8-chloro-11-[1-acryloyl-4-piperidylidene]-6,11-dihydro-5H-benzo[5,6]cyclohepta[1,2-b]pyridine], the inhibition at 25 µM in data set [1] (dose 25 micromoles) came to 63%.
`CC(=O)N1CCC(=C2c3ccc(Cl)cc3CC(=O)c3cccnc32)CC1` [8-chloro-11-[1-acetyl-4-piperidylidene]-6,11-dihydro-5H-benzo[5,6]cyclohepta[1,2-b]pyridin-5-one]: the IC50 in data set [1] stood at 1.2 µM.
The molecule `CNC(=O)N1CCC(=C2c3ccc(Cl)cc3CCc3cccnc32)CC1` [R^3 = Cl, R^4 = H, R = NHCH3, Z = O, 8-chloro-11-(1-methylaminocarbonyl-4-piperidylidene)-6,11-dihydro-5H-benzo[5,6]cyclohepta[1,2-b]pyridine] showed an inhibition at 50 µM in data set [1] (dose 50 micromoles) of 29%.
Consider `CCC(=O)N1CCC(=C2c3ccc(Cl)cc3CCc3cccnc32)CC1` [R = CH2 CH2, R^3 = Cl, R^4 = H, Z = O, 8-chloro-11-(1-propionyl-4-piperidylidene)-6,11-dihydro-5H-benzo[5,6]cyclohepta[1,2-b]pyridine], for which, in data set [2], the ED50 is over 320 mg/kg. In addition, in data set [3], the responders at 1 mg/kg came out at 40% and the responders at 5 mg/kg came out at 80%. Moreover, the ED50 in data set [4] is over 320 mg/kg. For the same molecule, in data set [1] (dose 3 micromoles), the inhibition at 3 µM came out at 60%.
Consider `O=C(c1ccccc1)N1CCC(=C2c3ccc(Cl)cc3CCc3cccnc32)CC1` [Z = O, R = Ph, R^3 = Cl, R^4 = H, 8-chloro-11-(1-benzoyl-4-piperidylidene)-6,11-dihydro-5H-benzo[5,6]cyclohepta[1,2-b]pyridine], for which, in data set [3], the responders at 1 mg/kg turned out to be 0% and the responders at 5 mg/kg turned out to be 100%. Besides, the inhibition at 10 µM in data set [1] turned out to be 9%.
As for `COCC(=O)N1CCC(=C2c3ccc(F)cc3CCc3cccnc32)CC1` [R = CH2 OCH3, R^3 = F, R^4 = H, Z = O, 8-fluoro-11-(1-methoxyacetyl-4-piperidylidene)-6,11-dihydro-5H-benzo[5,6]cyclohepta[1,2-b]pyridine], the ED50 in data set [2] was under 320 mg/kg. For the same molecule, in data set [3], the responders at 1 mg/kg amounted to 100% and the responders at 5 mg/kg came out at 100%. Also, the ED50 in data set [4] is under 320 mg/kg. The molecule also yielded an inhibition at 10 µM in data set [1] of 9%.
In data set [1], `CC(=O)N1CCC(=C2c3ccc(Cl)cc3C=Cc3cccnc32)CC1` returned a half-inhibitory concentration (IC50) of 0.5 µM.
As to `S=C(c1ccccc1)N1CCC(=C2c3ccc(Cl)cc3CCc3cccnc32)CC1` [Z = S, R = Ph, R^3 = Cl, R^4 = H, 8-chloro-11-(1-thiobenzoyl-4-piperidylidene)-6,11-dihydro-5H-benzo[5,6]cyclohepta[1,2-b]pyridine], the ED50 in data set [2] and in data set [4] was over 320 mg/kg each time. Moreover, in data set [3], the responders at 1 mg/kg amounted to 0%. The responders at 5 mg/kg in data set [3] came to 60%.
In the case of `COCC(=O)N1CCN(C2c3ccc(Cl)cc3CCc3cccnc32)CC1` (stereo not drawn) [8-chloro-11-(1-methoxyacetyl-4-piperazinyl)-6,11-dihydro-5H-benzo[5,6]cyclohepta[1,2-b]pyridine], the concentration for half-maximal inhibition (IC50) in data set [1] was 5 µM.
The molecule `CC(=O)N1CCC(=C2c3ccc(Cl)cc3CCc3ccc[n+](C)c32)CC1` displayed an inhibition at 5 µM in data set [1] of 58%.
As to `COCC(=O)N1CCC(=C2c3ccc(Cl)cc3CCc3cccnc32)CC1` [R = CH2 OCH3, R^3 = Cl, R^4 = H, Z = O, 8-chloro-11-(1-methoxyacetyl-4-piperidylidene)-6,11-dihydro-5H-benzo[5,6]cyclohepta[1,2-b]pyridine], the 50% effective dose (ED50) in data set [2] is over 320 mg/kg. Moreover, in data set [3], the responders at 1 mg/kg amounted to 80% and the responders at 5 mg/kg was found to be 80%. Besides, the 50% effective dose (ED50) in data set [4] is over 320 mg/kg. The half-maximal inhibitory concentration (IC50) in data set [1] was 6 µM.
In data set [1], `CC(=O)N1CCC(=C2c3cc4ccccc4cc3CCc3cccnc32)CC1` came in with an inhibition at 5 µM of 35%.
In data set [1], `CC(=O)N1CCC(=C2c3ccc(Cl)cc3CC(O)c3cccnc32)CC1` (stereo not drawn) [5-hydroxy-8-chloro-11-(1-acetyl-4-piperidylidene)-6,11-dihydro-5H-benzo[5,6]cyclohepta[1,2-b]pyridine] returned an IC50 of 5 µM.
In the case of `CCOC(=O)N1CCC(=C2c3ccc(Cl)cc3CCc3cccnc32)CC1` [R = OC2 H5, R^3 = Cl, R4 = H, Z = O, 8-chloro-6,11-dihydro-11-(1-ethoxycarbonyl-4-piperidylidene)-5H-benzo[5,6]cyclohepta[1,2-b]pyridine, reference compound], the median effective dose (ED50) in data set [3] (oral, probit analysis, read-out: Antihistaminic Activity, ED50) amounted to 0.19 mg/kg.
